Data on one molecule can be found in patent publication US20120178180A1, “METHODS FOR THE IDENTIFICATION OF ZAP-70 INTERACTING MOLECULES AND FOR THE PURIFICATION OF ZAP-70” (priority 2006, published 2012).

Structures are written as SMILES.

For the experiment, the target named is T1, phosphorylated ZAP-70 (Homo sapiens, UniProt P43403).
T1 construct: endogenous in cells; host or cells: Jurkat cells (clone E6-1, ATCC TIB-152), pervanadate treated
T1 sequence (P43403 1-619): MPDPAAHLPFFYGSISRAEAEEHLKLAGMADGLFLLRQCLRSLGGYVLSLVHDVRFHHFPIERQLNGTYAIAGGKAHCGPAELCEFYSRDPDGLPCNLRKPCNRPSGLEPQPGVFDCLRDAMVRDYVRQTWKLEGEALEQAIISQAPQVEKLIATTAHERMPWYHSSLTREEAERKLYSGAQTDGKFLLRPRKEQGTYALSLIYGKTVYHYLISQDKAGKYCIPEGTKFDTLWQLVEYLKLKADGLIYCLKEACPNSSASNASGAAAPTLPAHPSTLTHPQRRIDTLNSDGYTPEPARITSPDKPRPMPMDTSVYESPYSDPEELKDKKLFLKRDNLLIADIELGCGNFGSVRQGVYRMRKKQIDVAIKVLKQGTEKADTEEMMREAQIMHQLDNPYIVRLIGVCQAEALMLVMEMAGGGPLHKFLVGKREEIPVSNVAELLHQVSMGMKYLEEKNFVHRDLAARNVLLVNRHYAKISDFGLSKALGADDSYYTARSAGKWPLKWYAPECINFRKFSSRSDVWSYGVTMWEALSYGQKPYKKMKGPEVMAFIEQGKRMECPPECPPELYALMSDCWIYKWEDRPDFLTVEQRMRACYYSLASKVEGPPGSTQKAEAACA
Description: Drug pulldown with immobilized aminopyrido-pyrimidin ligand 24 and Western blot analysis. The experiment is classed as binding. Conditions: lysates of non-treated versus pervanadate treated Jurkat cells; Western blot, FIG. 2. The method, then:
As biological material cell lysates prepared from non-treated or pervanadate treated Jurkat cells were used. The drug pulldown experiment was performed as described in Example 2 with lysate samples containing 50 mg of protein. Input lysate, flowthrough (non-bound fraction) and SDS-eluates (bound fraction) were separated on a SDS-polyacrylamide gel and transferred to a membrane. The blot was probed first with a general anti-ZAP-70 antibody (2A) and then with an antiphospho-ZAP-70 antibody (2B). Secondary detection antibodies were labeled with fluorescent dyes for detection with the Odyssey infrared imaging system. […]
For Western blot analysis bound proteins were eluted from the affinity matrix and subsequently separated by SDS-Polyacrylamide gel electrophoresis. ZAP-70 was detected with a general monoclonal antibody binding to the non-phosphorylated aminoterminal part of the protein and in addition with a phospho-specific antibody (FIG. 2). […]
Jurkat cells were homogenized in a Potter S homogenizer in lysis buffer: 50 mM Tris-HCl, 0.8% NP40, 5% glycerol, 150 mM NaCl, 1.5 mM MgCl2, 25 mM NaF, 1 mM sodium vanadate, 1 mM DTT, pH 7.5. […] The supernatant was transferred again to a fresh 50 ml falcon tube, the protein concentration was determined by a Bradford assay (BioRad) and samples containing 50 mg of protein per aliquot were prepared. […]
A general note: A western blot detects proteins with antibodies after separation by electrophoresis.

With `Cn1c(=O)c(-c2c(Cl)cccc2Cl)cc2cnc(Nc3ccc(CN)cc3)cc21` [aminopyrido-pyrimidin ligand 24, 7-(4-Aminomethyl-phenylamino)-3-(2,6-dichloro-phenyl)-1-methyl-1H-[1,6]naphthyridin-2-one], the “pulldown of ZAP-70 by the immobilized ligand” value is listed as “preferentially pulls down a phosphorylated form of ZAP-70”.
